Tested on: young oophorectomized rats
Assay: Estrogenic activity (uterine wet weight) in young oophorectomized rats
Assay type: in vivo, Sprague-Dawley rats
Description: Test Example 1 Estrogenic activity of 7-isopropoxy-3-(4-hydroxyphenyl)-4H-1-benzopyran-4-one (hereinafter referred to as compound A) in young oophorectomized rats Sprague-Dawley rats, 33 days old and 11 days after oophorectomy for elimination of endogenous estrogenic activity, were used in groups of 6 to 7 animals. Compound A was suspended in a 1% aqueous solution of hydroxypropyl-cellulose and administered orally for 3 days, while as a representative example of the conventional estrogen drug, estrone was dissolved in sesame oil and administered subcutaneously for 3 days. On the fourth day, each animal was autopsied and its uterine wet weight was recorded.

Row | SMILES | Uterine wet weight (mg ± S.D.) (daily dose 6.25 mg/kg, orally for 3 days, autopsy on fourth day, n=7) [mg] | Uterine wet weight (mg ± S.D.) (daily dose 25 mg/kg, orally for 3 days, autopsy on fourth day, n=7) [mg] | Uterine wet weight (mg ± S.D.) (daily dose 100 mg/kg, orally for 3 days, autopsy on fourth day, n=7, significant vs control (P<0.01)) [mg] | Uterine wet weight (mg ± S.D.) (daily dose 400 mg/kg, orally for 3 days, autopsy on fourth day, n=6, significant vs control (P<0.01)) [mg] | uterine weight increasing effect, dose-response curve (orally for 3 days, daily dose levels of 100 mg/kg and 400 mg/kg) | Uterine wet weight (mg ± S.D.) (daily dose 0.0025 mg/kg, subcutaneously for 3 days in sesame oil, n=7, significant vs control (P<0.01)) [mg] | Uterine wet weight (mg ± S.D.) (daily dose 0.005 mg/kg, subcutaneously for 3 days in sesame oil, n=7, significant vs control (P<0.01)) [mg] | Uterine wet weight (mg ± S.D.) (daily dose 0.01 mg/kg, subcutaneously for 3 days in sesame oil, n=7, significant vs control (P<0.01)) [mg]
1 | CC(C)Oc1ccc2c(=O)c(-c3ccc(O)cc3)coc2c1 [Compound A, 7-isopropoxy-3-(4-hydroxyphenyl)-4H-1-benzopyran-4-one] | 32.6 ± 1.2 | 39.2 ± 2.3 | 56.3 ± 3.7 | 83.0 ± 6.9 | uterine weight increasing effect with a dose-response curve of moderate gradient | – | – | –
2 | C[C@]12CC[C@@H]3c4ccc(O)cc4CC[C@H]3[C@@H]1CCC2=O [Estrone, estrone, reference compound] | – | – | – | – | – | 121.1 ± 7.0 | 200.5 ± 14.3 | 247.2 ± 14.6

Reference: patent EP0136569A2, “Isoflavone derivatives, their production and use” (Takeda Chemical Industries, Ltd., priority 1983, dated 1985)
